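Tested at 5 concentrations; 48 h exposure; 96-well plates; endpoints linearly interpolated, else capped at highest concentration. GI50 = concentration required for 50% inhibition of growth.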 The source made the active and inactive calls. Cut-off read from the data, not from the text of the source: active = GI50 up to about 1.1 µM and inactive = higher.
How the values were obtained:
Test in all cases: NCI tumour cell line growth inhibition, 48 h
[1] = system: HCT-116
[2] = system: T47D
[3] = system: SK-OV-3
[4] = system: SW-620
[5] = system: HT-29
[6] = system: OVCAR-3
[7] = system: K562
[8] = system: U-251
[9] = system: HL-60
[10] = system: Hs-578T
[11] = system: NCI-H23
[12] = system: SN12C
[13] = system: DU-145
[14] = system: SF-268
[15] = system: SK-MEL-5
[16] = system: COLO 205
[17] = system: MOLT-4
[18] = system: NCI-H460
[19] = system: EKVX
[20] = system: UACC-257
[21] = system: MDA-MB-231
[22] = system: NCI-H226
[23] = system: BT-549
[24] = system: SK-MEL-28
[25] = system: SF-539
[26] = system: SNB-19
[27] = system: 786-0
[28] = system: MCF7
[29] = system: SF-295
[30] = system: PC-3
[31] = system: Malme-3M
[32] = system: HOP-92
[33] = system: ACHN
[34] = system: IGROV-1
[35] = system: MDA-MB-435
[36] = system: TK-10
[37] = system: UO-31
[38] = system: SK-MEL-2
[39] = system: M14
[40] = system: CAKI-1
[41] = system: OVCAR-5
[42] = system: MDA-N
[43] = system: RXF 393
[44] = system: LOX IMVI
[45] = system: A498
[46] = system: A549
[47] = system: SNB-75
[48] = system: KM12
[49] = system: UACC-62
[50] = system: OVCAR-8
[51] = system: NCI/ADR-RES
[52] = system: CCRF-CEM
[53] = system: HOP-62
[54] = system: RPMI-8226
[55] = system: HCT-15
[56] = system: NCI-H522
[57] = system: HCC 2998
[58] = system: OVCAR-4
[59] = system: SR

Measured: GI50

N#CC12COC3(CCCCC3C1(C#N)C#N)OC2=N (configuration not stated)
inactive: [1] 12.6 µM | [2] 11 µM | [3] 45.7 µM | [4] 10.3 µM | [5] 11.3 µM | [6] 11.1 µM | [7] 10.6 µM | [8] 8.87 µM | [9] 2.91 µM | [10] 17.1 µM | [11] 16.7 µM | [12] 12.3 µM | [13] 15.3 µM | [14] 12.7 µM | [15] 11.4 µM | [16] 6.4 µM | [17] 10.9 µM | [18] 16 µM | [19] 18.5 µM | [20] 17.4 µM | [21] 15.2 µM | [22] 22.9 µM | [23] 15.4 µM | [24] 14.6 µM | [25] 13.9 µM | [26] 17.8 µM | [27] 19.2 µM | [28] 11.7 µM | [29] 19.5 µM | [30] 13.8 µM | [31] 16.3 µM | [32] 5.06 µM | [33] 15.1 µM | [34] 14.6 µM | [35] 18.9 µM | [36] 16.2 µM | [37] 15.2 µM | [38] 12.7 µM | [39] 10.6 µM | [40] 3.59 µM | [41] 16.6 µM | [42] 12.9 µM | [43] 13.1 µM | [44] 12.9 µM | [45] 18.2 µM | [46] 24.7 µM | [47] 14 µM | [48] > 10 µM | [49] 14.7 µM | [50] > 10 µM | [51] 28.2 µM | [52] 3.53 µM

Cn1c(N)nc(-c2ccc(Cl)cc2)c1SSc1c(-c2ccc(Cl)cc2)nc(N)n1C
active: [9] 1.05 µM
inactive: [1] 4.23 µM | [2] 2.28 µM | [3] 14.4 µM | [4] 2.07 µM | [5] 2.3 µM | [6] 1.82 µM | [7] 2.36 µM | [8] 2.03 µM | [10] 27.1 µM | [53] 2.86 µM | [11] 1.63 µM | [12] 3.42 µM | [13] 12.8 µM | [14] 2.77 µM | [15] 1.82 µM | [16] 1.94 µM | [17] 5.25 µM | [18] 3.45 µM | [19] 2.73 µM | [20] 2.04 µM | [21] 1.4 µM | [22] 37.2 µM | [23] 2.58 µM | [24] 2.02 µM | [25] 1.71 µM | [26] 14.7 µM | [27] 1.92 µM | [29] 6.93 µM | [30] 1.84 µM | [54] 1.31 µM | [31] 2.3 µM | [32] 1.97 µM | [33] 2.38 µM | [34] 2.99 µM | [35] 2.05 µM | [36] 1.86 µM | [37] 1.85 µM | [38] 17.8 µM | [39] 2.12 µM | [41] 1.86 µM | [42] 1.77 µM | [43] 2.43 µM | [56] 1.66 µM | [45] 14.3 µM | [46] 12.8 µM | [57] 7.82 µM | [47] 7.67 µM | [48] 1.85 µM | [49] 2.3 µM | [50] 2.86 µM | [51] 2.1 µM | [52] 2.44 µM | [58] 1.75 µM
1.77 µM: [55]

C=C(C)CC1=C(OCC)C(OC)(OCC)C1=O (configuration not stated)
inactive: [1] > 100 µM | [2] > 100 µM | [3] > 100 µM | [4] > 100 µM | [5] > 100 µM | [6] > 100 µM | [8] > 100 µM | [9] > 100 µM | [10] > 100 µM | [53] > 100 µM | [11] > 100 µM | [12] > 100 µM | [13] > 100 µM | [14] > 100 µM | [15] > 100 µM | [16] > 100 µM | [17] > 100 µM | [18] > 100 µM | [19] > 100 µM | [20] > 100 µM | [21] > 100 µM | [22] > 100 µM | [23] 40.3 µM | [24] > 100 µM | [25] > 100 µM | [26] > 100 µM | [27] > 100 µM | [28] > 100 µM | [29] > 100 µM | [30] > 100 µM | [32] > 100 µM | [33] > 100 µM | [34] > 100 µM | [35] > 100 µM | [36] > 100 µM | [37] > 100 µM | [38] > 100 µM | [39] > 100 µM | [40] > 100 µM | [41] > 100 µM | [42] > 100 µM | [44] > 100 µM | [56] 47.8 µM | [45] > 100 µM | [46] > 100 µM | [47] > 100 µM | [48] > 100 µM | [49] > 100 µM | [50] > 100 µM | [51] > 100 µM | [52] > 100 µM | [58] > 100 µM
> 100 µM: [55]

CN(C)c1nc2n(CCO)c(-c3ccccc3)c(-c3ccccc3)nc-2c(=O)n1
> 100 µM: [55]
inactive: [1] > 100 µM | [2] > 100 µM | [3] > 100 µM | [4] > 100 µM | [5] > 100 µM | [6] > 100 µM | [7] > 100 µM | [8] > 100 µM | [10] > 100 µM | [53] > 100 µM | [11] > 100 µM | [12] > 100 µM | [13] > 100 µM | [14] > 100 µM | [15] > 100 µM | [16] > 100 µM | [17] > 100 µM | [18] > 100 µM | [19] > 100 µM | [20] > 100 µM | [21] > 100 µM | [22] > 100 µM | [23] > 100 µM | [24] > 100 µM | [25] > 100 µM | [26] > 100 µM | [27] > 100 µM | [29] > 100 µM | [30] > 100 µM | [54] > 100 µM | [31] > 100 µM | [32] > 100 µM | [33] > 100 µM | [34] > 100 µM | [35] > 100 µM | [36] > 100 µM | [37] > 100 µM | [38] > 100 µM | [39] > 100 µM | [59] > 100 µM | [40] > 100 µM | [41] > 100 µM | [42] > 100 µM | [43] > 100 µM | [44] > 100 µM | [56] > 100 µM | [45] > 100 µM | [46] > 100 µM | [57] > 100 µM | [47] 21.7 µM | [48] > 100 µM | [49] > 100 µM | [50] > 100 µM | [51] > 100 µM | [52] > 100 µM | [58] > 100 µM

Reference: ChEMBL document CHEMBL1201862, “PubChem BioAssay data set” (2004)
